In BindingDB's records for doi:10.7270/Q2N014XN (Srmlsc, 2007):
pIC50: −log10 of the molar value.

Each molecule was assayed against T1, Diphosphomevalonate decarboxylase (Streptococcus pneumoniae serotype 2 (strain D39 / NCTC 7466), UniProt A0A0H2ZN59) (assay: S. pneumoniae DPM-DC inhibitor potency, dose response, biochemical, PK/LDH-coupled NADH fluorescence, hexokinase coupling counter-screen (AID 550)). Conditions: not given.
T1 sequence (A0A0H2ZN59 whole entry): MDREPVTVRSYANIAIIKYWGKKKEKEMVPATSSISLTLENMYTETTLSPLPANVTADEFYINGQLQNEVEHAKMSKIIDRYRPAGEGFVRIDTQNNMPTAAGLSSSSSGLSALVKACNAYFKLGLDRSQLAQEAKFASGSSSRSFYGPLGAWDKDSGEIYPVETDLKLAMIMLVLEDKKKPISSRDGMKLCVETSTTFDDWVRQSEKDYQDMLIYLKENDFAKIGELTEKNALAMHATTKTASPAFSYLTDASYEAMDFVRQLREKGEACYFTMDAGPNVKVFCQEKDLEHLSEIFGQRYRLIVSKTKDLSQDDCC
`CCOC(=O)c1sc2nc(SCC(=O)NCc3ccco3)n(Cc3ccccc3)c(=O)c2c1C` [2-[[2-(2-furanylmethylamino)-2-oxoethyl]thio]-5-methyl-4-oxo-3-(phenylmethyl)-6-thieno[2,3-d]pyrimidinecarboxylic acid ethyl ester] gave a pIC50 of 4.07.
`O=C(Nc1ccc(F)cc1)N(CCCN1CCOCC1)Cc1cc2cc3c(cc2[nH]c1=O)OCO3` [3-(4-fluorophenyl)-1-[3-(4-morpholinyl)propyl]-1-[(6-oxo-5H-[1,3]dioxolo[4,5-g]quinolin-7-yl)methyl]urea] gave a pIC50 of 4.75.
With `CCCC(=O)Nc1ccc(N2CCN(C(=O)CCC)CC2)cc1` [MLS000034431] the pIC50 was < 2.00.
For `O=C1CCC(C(=O)N(Cc2ccco2)C2(C(=O)NC3CCCC3)CCCCC2)N1` (configuration not stated) [MLS000090457], the pIC50 was < 2.00.
`CCCCCn1c(SCC#N)nc2cc(C(=O)NCC3CCCO3)ccc2c1=O` (configuration not stated) [2-(cyanomethylsulfanyl)-4-oxidanylidene-N-(oxolan-2-ylmethyl)-3-pentyl-quinazoline-7-carboxamide] was tested, and the pIC50 was < 2.00.
Work on `Cc1ccc(C)c(-c2nc3cc(N)ccc3o2)c1` [2-(2,5-Dimethyl-phenyl)-benzooxazol-5-ylamine] yielded a pIC50 of 5.22.
With `COc1ccccc1CNc1ncnc2nc[nH]c12` [MLS000101257] the pIC50 was < 2.00.
`O=C(O)CCn1nnc(-c2cccs2)n1` [3-(5-Thiophen-2-yl-tetrazol-2-yl)-propionic acid] was tested, and the pIC50 was < 2.00.
In the case of `CCOc1ncccc1C(=O)Nc1ccc2c(C)cc(=O)oc2c1` [2-ethoxy-N-(2-keto-4-methyl-chromen-7-yl)nicotinamide], the pIC50 was < 2.00.
`Nc1c(C(=O)NCCN2CCOCC2)c2nc3ccccc3nc2n1-c1ccc2c(c1)OCO2` [2-amino-1-(1,3-benzodioxol-5-yl)-N-(2-morpholin-4-ylethyl)pyrrolo[3,2-b]quinoxaline-3-carboxamide] showed a pIC50 of 4.06.
In the case of `Cc1cc(C)c2c(n1)nn1c(N3CCN(c4ccccc4)CC3)cc(C)nc21` [2,8,10-trimethyl-4-(4-phenyl-1-piperazinyl)pyrido[2,3]pyrazolo[2,4-a]pyrimidine], the pIC50 was 4.89.
In the case of `CCOc1ccccc1OCC(=O)Nc1ccc(N2CCCCC2)cc1` [2-(2-ethoxyphenoxy)-N-(4-piperidin-1-ylphenyl)acetamide], the pIC50 was < 2.00.
With `N#CC(C(=O)NC1CCCCC1)c1nc2ccccc2nc1N1CCCCC1` (configuration not stated) [2-cyano-N-cyclohexyl-2-(3-piperidin-1-ylquinoxalin-2-yl)acetamide] the pIC50 was < 2.00.
For `Cc1nc(-c2cnn(-c3ccccc3)c2)c2cc(C)oc2n1` [SMR000046165], the pIC50 was < 2.00.
Work on `COc1ccc(-c2c3c(nc4sc(C(=O)Nc5cc(C)on5)c(N)c24)CCC3)cc1` [3-amino-4-(4-methoxyphenyl)-N-(5-methyl-3-isoxazolyl)-6,7-dihydro-5H-cyclopenta[b]thieno[3,2-e]pyridine-2-carboxamide] yielded a pIC50 of 5.08.
`COc1ccccc1-c1nc(C(N)=O)c2[nH]c(=O)n(-c3cccc(C)c3)c2n1` [MLS000094139] showed a pIC50 of 4.67.
In the case of `O=c1c2ccccc2sn1-c1cc(S(=O)(=O)N2CCOCC2)ccc1N1CCOCC1` [2-(2-morpholin-4-yl-5-morpholin-4-ylsulfonyl-phenyl)-1,2-benzothiazol-3-one], the pIC50 was 4.81.
Work on `CC1(C)CC(=O)c2cc(OCC(=O)N3CCN(c4ccccc4F)CC3)ccc2O1` [6-[2-[4-(2-fluorophenyl)-1-piperazinyl]-2-oxoethoxy]-2,2-dimethyl-3,4-dihydro-2H-1-benzopyran-4-one] yielded a pIC50 of 4.43.
For `Cc1ccc(S(=O)(=O)NCCN2CCOCC2)cc1C` [3,4-Dimethyl-N-(2-morpholin-4-yl-ethyl)-benzenesulfonamide], the pIC50 was < 2.00.
`Cc1c(C(=O)NCC2CCCO2)sc2nc(-c3ccccc3)cn12` (configuration not stated) [3-methyl-6-phenyl-N-(tetrahydrofurfuryl)imidazo[2,1-b]thiazole-2-carboxamide] was tested, and the pIC50 was < 2.00.
With `CCOc1ccc(N(CC(=O)NC2CCCC(C)C2C)S(=O)(=O)c2c(C)noc2C)cc1` (configuration not stated) [MLS000117395] the pIC50 was < 2.00.
In the case of `O=c1c2ccccc2sn1-c1ccc(S(=O)(=O)N2CCCC2)cc1` [2-(4-pyrrolidin-1-ylsulfonylphenyl)-1,2-benzothiazol-3-one], the pIC50 was 5.58.
For `Cn1c(=O)[nH]c(=O)c2c1nc(NC1CCCCC1)n2Cc1ccccc1` [MLS000083828], the pIC50 was < 2.00.
With `Cc1cc(N2CCN(C3CCCC3)CC2)n2nc(C)c(-c3ccccc3)c2n1` [7-(4-cyclopentyl-1-piperazinyl)-2,5-dimethyl-3-phenylpyrazolo[1,5-a]pyrimidine] the pIC50 was < 2.00.
In the case of `CCOC(=O)COc1ccc2nsnc2c1Cl` [2-(4-chloropiazthiol-5-yl)oxyacetic acid ethyl ester], the pIC50 was < 2.00.
With `CCOC(=O)c1c(CC(C)C)csc1NC=O` [2-formamido-4-(2-methylpropyl)-3-thiophenecarboxylic acid ethyl ester] the pIC50 was < 2.00.
With `O=C(Nc1ccc2nc(-c3cccs3)c(-c3cccs3)nc2c1)N1CCOCC1` [MLS000050299] the pIC50 was 4.59.
In the case of `CC(O)COc1ccc(C(N=O)c2ccccc2)cc1` (configuration not stated) [(E)-[4-(2-hydroxypropoxy)phenyl](phenyl)methanone oxime], the pIC50 was < 2.00.
In the case of `C=C(C)Cn1c(COc2ccccc2)nnc1SCC(=O)O` [2-[[4-(2-methylallyl)-5-(phenoxymethyl)-1,2,4-triazol-3-yl]thio]acetic acid], the pIC50 was < 2.00.
With `NC(=O)c1ccsc1NC(=O)c1nc(-c2ccccc2)n(-c2ccccc2)n1` [MLS000054020] the pIC50 was 4.25.
`Cc1nc2oc3c(NCC4CCCO4)ncnc3c2c2c1COC(C)(C)C2` (configuration not stated) [MLS000084527] was tested, and the pIC50 was 4.65.
For `Cc1cc(O)c(C=Nc2cccc(Cl)c2)c(=O)o1` [(3Z)-3-[(3-chloroanilino)methylene]-6-methyl-pyran-2,4-quinone], the pIC50 was < 2.00.
`COC(=O)c1cc(OC)c(OC)cc1NC(=O)c1oc2ccccc2c1C` [4,5-dimethoxy-2-[(3-methylbenzofuran-2-carbonyl)amino]benzoic acid methyl ester] was tested, and the pIC50 was < 2.00.
With `O=S(=O)(Nc1ccc(C(F)(F)F)cc1)c1c[nH]cn1` the pIC50 was < 2.00.
In the case of `CCOc1nc(-c2ccccc2)ccc1-c1noc(-c2ccc(OC)c(OC)c2)n1` [3-[5-(3,4-Dimethoxy-phenyl)-[1,2,4]oxadiazol-3-yl]-2-ethoxy-6-phenyl-pyridine], the pIC50 was < 2.00.
For `Cc1c2ccncc2c(C)c2c1[nH]c1ccccc12` [5,11-dimethyl-2H-pyrido[4,3-b]carbazole], the pIC50 was 3.92.
In the case of `c1ccc(N2CCN(c3cnccn3)CC2)nc1` [2-(4-pyridin-2-ylpiperazin-1-yl)pyrazine], the pIC50 was < 2.00.
With `Oc1nc(-c2ccncc2)nc2ccccc12` [MLS000056988] the pIC50 was < 2.00.
For `Cn1/c(=N/C(=O)c2ccco2)sc2cccc(F)c21` [MLS000101506], the pIC50 was < 2.00.
`CCN(CCNC(=O)C1CCN(c2nnc(-n3cccc3)s2)CC1)c1ccccc1` [MLS000119699] was tested, and the pIC50 was < 2.00.
In the case of `c1ccc2c(c1)nnn2Cc1nnc2sc(-c3ccc4c(c3)OCCO4)nn12` [1-{[6-(2,3-dihydro-1,4-benzodioxin-6-yl)[1,2,4]triazolo[3,4-b][1,3,4]thiadiazol-3-yl]methyl}-1H-1,2,3-benzotriazole], the pIC50 was 4.08.
In the case of `CC(C)CNC(=O)COc1ccc2c3c(c(=O)oc2c1)CCC3` [MLS000054673], the pIC50 was 4.18.
Molecule `Cc1cccn2c(=O)c3cc(C#N)/c(=N\C(=O)c4ccc5c(c4)OCO5)n(CC(C)C)c3nc12` [MLS000082296] has a pIC50 of 3.93.
`Cc1c(C(=O)NC2CC2)oc2ccc(S(=O)(=O)N3CCCCCC3)cc12` [5-(1-azepanylsulfonyl)-N-cyclopropyl-3-methyl-2-benzofurancarboxamide] was tested, and the pIC50 was < 2.00.
`CC(C)c1ccc(-c2nc3c([nH]2)c(=O)n(C)c(=O)n3C)cc1` [1,3-dimethyl-8-(4-propan-2-ylphenyl)-7H-purine-2,6-dione] was tested, and the pIC50 was 4.66.
`Nc1c(C(=O)NC2CCCC2)c2nc3ccccc3nc2n1N=Cc1cccnc1` [2-amino-N-cyclopentyl-1-(3-pyridinylmethylideneamino)-3-pyrrolo[3,2-b]quinoxalinecarboxamide] was tested, and the pIC50 was 4.77.
For `N#Cc1c(NCCCO)nc(NCc2ccccc2)c2c1CCN(Cc1ccccc1)C2` [3-(3-hydroxypropylamino)-7-(phenylmethyl)-1-[(phenylmethyl)amino]-6,8-dihydro-5H-2,7-naphthyridine-4-carbonitrile], the pIC50 was 4.41.
`CC(NC(=O)c1cccc(N2CCCC2=O)c1)c1ccc2c(c1)OCCO2` (configuration not stated) [MLS000046772] was tested, and the pIC50 was < 2.00.
With `COc1cc(C2C3=C(CC(C)(C)CC3=O)N=C(C)C2C#N)cc(OC)c1O` (configuration not stated) the pIC50 was < 2.00.
In the case of `N#C/C(=C\C1CC=CCC1)c1nc2ccccc2[nH]1` (configuration not stated) [(E)-2-(1H-benzimidazol-2-yl)-3-cyclohex-3-en-1-ylprop-2-enenitrile], the pIC50 was < 2.00.
For `CCOC(=O)N1CCC(NC(=O)CSc2cc(=O)n(C)c3ccccc23)CC1` [4-[[2-[(1-methyl-2-oxo-4-quinolinyl)thio]-1-oxoethyl]amino]-1-piperidinecarboxylic acid ethyl ester], the pIC50 was 3.40.
`COc1ccc(-c2cc(C(=O)OCC(=O)N(C)C)c3ccccc3n2)cc1` [2-(4-methoxyphenyl)-4-quinolinecarboxylic acid [2-(dimethylamino)-2-oxoethyl] ester] was tested, and the pIC50 was 4.39.
With `CCCOC(=O)Cc1n[nH]c(=O)[nH]c1=O` [2-(3,5-dioxo-2H-1,2,4-triazin-6-yl)acetic acid propyl ester] the pIC50 was < 2.00.

Same assay, conditions: inactive by the depositor's call
In the case of `O=C(O)c1cccn2c(=O)c3ccccc3nc12` [11-Oxo-11H-pyrido[2,1-b]quinazoline-6-carboxylic acid], the pIC50 was 4.18.
`CCCCNC(=O)c1ccc2nc(-c3ccco3)c(-c3ccco3)nc2c1` [MLS000119995] showed a pIC50 of 4.12.
In the case of `Cc1ccc(-c2cc(C(F)(F)F)n3ncc(C(=O)NCc4ccco4)c3n2)cc1` [MLS000109298], the pIC50 was 4.23.
In the case of `Clc1ccc2c(c1)[C@H]1OCC[C@H]1[C@@H](c1ccco1)N2` [(3aS,4S,9bS)-8-chloranyl-4-(furan-2-yl)-2,3,3a,4,5,9b-hexahydrofuro[3,2-c]quinoline], the pIC50 was 4.61.
